Earlier results on three compounds are cited in paper PMC6099358 (Diabetes, Obesity & Metabolism, 2018).

Where two headings read alike, the source gives them in different places.

This series relates to participants with T1DM. Particulars: cited from earlier work; for DKA events, certain / DKA events, potential: 24 weeks.

Turning to `CCOc1ccc(Cc2cc([C@@H]3O[C@H](CO)[C@@H](O)[C@H](O)[C@H]3O)ccc2Cl)cc1` [dapagliflozin], for the setting “5 mg”, the “DKA events, certain” value was 4 [1%] participants [%] and the “DKA events, potential” value was 16 [6%] participants [%]. Further, under “10 mg”, the “DKA events, certain” value was 5 [2%] participants [%] and the “DKA events, potential” value is 19 [6%] participants [%].
As to `Cc1ccc([C@@H]2O[C@H](CO)[C@@H](O)[C@H](O)[C@H]2O)cc1Cc1ccc(-c2ccc(F)cc2)s1` [canagliflozin], the DKA runs as follows: (100 mg, vs placebo 0) 5 [4.3%] participants [%]; (300 mg, vs placebo 0) 7 [6.0%] participants [%].
Take `CCOc1ccc(Cc2cc([C@@H]3O[C@H](SC)[C@@H](O)[C@H](O)[C@H]3O)ccc2Cl)cc1` [sotagliflozin]: the DKA (vs placebo 4 [0.6%]) was 21 [3.0%] participants [%].
